Assay [1] deals with T1, CDK9/CycT1 (Homo sapiens, UniProt P50750).
T1 construct: Recombinant full-length His-tagged human CDK9 and CycT1; His; purchased Invitrogen PV4131; host or cells: insect cells
Put plainly: CDK9/CycT1 kinase assay (TR-FRET, Method 1a). Format: biochemical. Conditions: for IC50: Method 1a, 10 μM ATP; for Selectivity CDK9/CDK2: derived from Methods 1a. and 2. An excerpt: 1a. CDK9/CyeT1 Kinase Assay:
CDK9/CycT1-inhibitory activity of compounds of the present invention was quantified employing the CDK9/CycT1 TR-FRET assay as described in the following paragraphs:
Recombinant full-length His-tagged human CDK9 and CycT1, expressed in insect cells and purified by Ni-NTA affinity chromatography, were purchased from Invitrogen (Cat. No PV4131). As substrate for the kinase reaction biotinylated peptide biotin-Ttds-YISPLKSPYKISEG (C-terminus in amid form) was used which can be purchased e.g. form the company JERINI Peptide Technologies (Berlin, Germany). For the assay 50 nl of a 100 fold concentrated solution of the test compound in DMSO was pipetted into a black low volume 384 well microtiter plate (Greiner Bio-One, Frickenhausen, Germany), 2 μl of a solution of CDK9/CycT1 in aqueous assay buffer [50 mM Tris/HCl pH 8.0, 10 mM MgCl2, 1.0 mM dithiothreitol, 0.1 mM sodium ortho-vanadate, 0.01% (v/v) Nonidet-P40 (Sigma)] were added and the mixture was incubated for 15 min at 22° C. to allow pre-binding of the test compounds to the enzyme before the start of the kinase reaction. Then the kinase reaction was started by the addition of 3 μl of a solution of adenosine-tri-phosphate (ATP, 16.7 μM=>final conc. in the 5 μl assay volume is 10 μM) and substrate (1.67 μM=>final conc. in the 5 μl assay volume is 1 μM) in assay buffer and the resulting mixture was incubated for a reaction time of 25 min at 22° C. The concentration of CDK9/CycT1 was adjusted depending of the activity of the enzyme lot and was chosen appropriate to have the assay in the linear range, typical concentrations were in the range of 1 μg/ml. The reaction was stopped by the addition of 5 μl of a solution of TR-FRET detection reagents (0.2 μM streptavidine-XL665 [Cisbio Bioassays, Codolet, France] and 1 nM anti-RB(pSer807/pSer811)-antibody from BD Pharmingen [#558389] and 1.2 nM LANCE EU-W1024 labeled anti-mouse IgG antibody [Perkin-Elmer, product no. AD0077]) in an aqueous EDTA-solution (100 mM EDTA, 0.2% (w/v) bovine serum albumin in 100 mM HEPES/NaOH pH 7.0).
The resulting mixture was incubated 1 h at 22° C. to allow the formation of complex between the phosphorylated biotinylated peptide and the detection reagents. Subsequently the amount of phosphorylated substrate was evaluated by measurement of the resonance energy transfer from the Eu-chelate to the streptavidine-XL. Therefore, the fluorescence emissions at 620 nm and 665 nm after excitation at 350 nm was measured in a HTRF reader, e.g. a Rubystar (BMG Labtechnologies, Offenburg, Germany) or a Viewlux (Perkin-Elmer). The ratio of the emissions at 665 nm and at […] was taken as the measure for the amount of phosphorylated substrate. The data were normalised (enzyme reaction without inhibitor=0% inhibition, all other assay components but no enzyme=100% inhibition).

For assay [2], the system named is HeLa cells. Briefly: Proliferation assay (crystal violet), HeLa. Type of assay: cell-based. Conditions: Homo sapiens, 96 h, 4 days, read-out: Inhibition of HeLa cell proliferation IC50. The method, then: Cultivated tumour cells (HeLa, human cervical tumour cells, ATCC CCL-2; NCI-H460, human non-small cell lung carcinoma cells, ATCC HTB-177; A2780, human ovarian carcinoma cells, ECACC #93112519; DU 145, hormone-independent human prostate carcinoma cells, ATCC HTB-81; HeLa-MaTu-ADR, multidrug-resistant human cervical carcinoma cells, EPO-GmbH Berlin; Caco-2, human colorectal carcinoma cells, ATCC HTB-37; B 16F10, mouse melanoma cells, ATCC CRL-6475) were plated at a density of 5,000 cells/well (DU145, HeLa-MaTu-ADR), 3,000 cells/well (NCI-H460, HeLa), 2,500 cells/well (A2780), 1,500 cells/well (Caco-2), or 1,000 cells/well (B16F10) in a 96-well multititer plate in 200 μL of their respective growth medium supplemented 10% fetal calf serum. After 24 hours, the cells of one plate (zero-point plate) were stained with crystal violet (see below), while the medium of the other plates was replaced by fresh culture medium (200 to which the test substances were added in various concentrations (0 μM, as well as in the range of 0.001-10 μM; the final concentration of the solvent dimethyl sulfoxide was 0.5%). The cells were incubated for 4 days in the presence of test substances. Cell proliferation was determined by staining the cells with crystal violet: the cells were fixed by adding 20 μl/measuring point of an 11% glutaric aldehyde solution for 15 minutes at room temperature. After three washing cycles of the fixed cells with water, the plates were dried at room temperature. The cells were stained by adding 100 μl/measuring point of a 0.1% crystal violet solution (pH 3.0). After three washing cycles of the stained cells with water, the plates were dried at room temperature. The dye was dissolved by adding 100 μl/measuring point of a 10% acetic acid solution. The extinction was determined by photometry at a wavelength of 595 nm. The change of cell number, in percent, was calculated by normalization of the measured values to the extinction values of the zero-point plate (=0%) and the extinction of the untreated (0 μm) cells (=100%). The IC50 values (inhibitory concentration at 50% of maximal effect) were determined by means of a 4 parameter fit.

T1 sequence (P50750 whole entry): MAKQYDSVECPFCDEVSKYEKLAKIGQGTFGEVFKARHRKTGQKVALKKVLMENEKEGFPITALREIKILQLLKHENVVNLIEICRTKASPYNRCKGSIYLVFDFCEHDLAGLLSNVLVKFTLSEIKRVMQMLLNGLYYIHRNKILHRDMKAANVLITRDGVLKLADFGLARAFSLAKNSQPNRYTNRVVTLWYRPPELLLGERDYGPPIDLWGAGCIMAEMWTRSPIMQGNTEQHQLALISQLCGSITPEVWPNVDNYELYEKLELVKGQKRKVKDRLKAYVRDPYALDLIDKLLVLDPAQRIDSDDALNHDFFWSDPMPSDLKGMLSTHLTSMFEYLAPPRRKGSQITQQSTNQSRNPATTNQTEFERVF
T1 sequence (O60563 whole entry partner): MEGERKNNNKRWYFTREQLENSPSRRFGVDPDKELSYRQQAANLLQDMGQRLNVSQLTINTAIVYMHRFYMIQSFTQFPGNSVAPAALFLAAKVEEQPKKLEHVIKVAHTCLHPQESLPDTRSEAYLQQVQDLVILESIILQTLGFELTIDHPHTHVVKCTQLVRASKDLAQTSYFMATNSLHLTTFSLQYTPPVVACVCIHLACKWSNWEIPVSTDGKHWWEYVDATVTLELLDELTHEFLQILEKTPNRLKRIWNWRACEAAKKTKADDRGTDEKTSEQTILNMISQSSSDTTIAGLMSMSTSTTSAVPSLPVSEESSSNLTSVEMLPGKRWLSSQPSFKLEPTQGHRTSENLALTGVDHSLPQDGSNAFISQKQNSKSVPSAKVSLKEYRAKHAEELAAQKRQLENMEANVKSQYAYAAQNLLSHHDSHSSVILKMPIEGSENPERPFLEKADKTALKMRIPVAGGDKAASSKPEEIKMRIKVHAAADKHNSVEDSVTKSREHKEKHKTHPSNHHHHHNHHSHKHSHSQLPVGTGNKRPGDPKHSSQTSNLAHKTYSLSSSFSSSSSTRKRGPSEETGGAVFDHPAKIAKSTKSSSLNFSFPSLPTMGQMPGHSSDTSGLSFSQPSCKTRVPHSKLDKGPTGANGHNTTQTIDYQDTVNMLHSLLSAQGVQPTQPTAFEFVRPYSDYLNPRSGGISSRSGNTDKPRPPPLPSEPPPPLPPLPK

As for `CC(C)S(=O)(=O)Cc1cccc(Nc2ncc(F)c(-c3ccc(F)cc3F)n2)c1` [Example 2, 4-(2,4-Difluorophenyl)-5-fluoro-N-{3-[(propan-2-ylsulfonyl)methyl]phenyl}pyrimidin-2-amine], the IC50 in assay [1] came to 50 nM; in assay [2], 3000 nM. In assay [1], the “Selectivity CDK9/CDK2” value is 24.
The matching figures for `CS(=O)(=O)Cc1cc(F)cc(Nc2ncc(F)c(-c3ccc(F)cc3F)n2)c1` [Example 10, 4-(2,4-Difluorophenyl)-5-fluoro-N-{3-fluoro-5-[(methylsulfonyl)methyl]phenyl}pyrimidin-2-amine]: 130 nM, 3000 nM and 28.
The matching figures for `CS(=O)(=O)Cc1cc(Nc2ncc(F)c(-c3ccc(F)cc3F)n2)cc(S(F)(F)(F)(F)F)c1` [Example 6, 4-(2,4-Difluorophenyl)-5-fluoro-N-{3-[(methylsulfonyl)methyl]-5-(pentafluoro-λ^6-sulfanyl)phenyl}pyrimidin-2-amine]: 14 nM, 617 nM and 122.
For `CS(=O)(=O)Cc1cccc(Nc2ncc(F)c(-c3ccc(F)cc3F)n2)c1` [Example 5, 4-(2,4-Difluorophenyl)-5-fluoro-N-{3-[(methylsulfonyl)methyl]phenyl}pyrimidin-2-amine], in assay [1], the IC50 was 51 nM and the “Selectivity CDK9/CDK2” value was 9.1.
As to `CS(=O)(=O)Cc1cc(F)cc(Nc2ncc(F)c(-c3ccc(F)c(F)c3F)n2)c1` [Example 12, 5-fluoro-N-{3-fluoro-5-[(methylsulfonyl)methyl]phenyl}-4-(2,3,4-trifluorophenyl)pyrimidin-2-amine], in assay [1], the IC50 is 25 nM and the “Selectivity CDK9/CDK2” value is 14. The IC50 in assay [2] came out at 1000 nM.
For `COCCS(=O)(=O)Cc1cccc(Nc2ncc(F)c(-c3ccc(F)cc3F)n2)c1` [Example 4, 4-(2,4-Difluorophenyl)-5-fluoro-N-(3-{[(2-methoxyethyl)sulfonyl]methyl}phenyl)pyrimidin-2-amine], in assay [1], the IC50 was 130 nM and the “Selectivity CDK9/CDK2” value was 20.
As to `CCCS(=O)(=O)Cc1cc(F)cc(Nc2ncc(F)c(-c3ccc(F)cc3F)n2)c1` [Example 13, 4-(2,4-Difluorophenyl)-5-fluoro-N-{3-fluoro-5-[(propylsulfonyl)methyl]phenyl}pyrimidin-2-amine], in assay [1], the IC50 came out at 13 nM and the “Selectivity CDK9/CDK2” value is recorded as 44. Further, the IC50 in assay [2] is 3000 nM.
Take `CCCS(=O)(=O)Cc1cccc(Nc2ncc(F)c(-c3ccc(F)cc3F)n2)c1` [Example 8, 4-(2,4-difluorophenyl)-5-fluoro-N-{3-[(propylsulfonyl)methyl]phenyl}pyrimidin-2-amine]: in assay [1], the IC50 came out at 39 nM and the “Selectivity CDK9/CDK2” value is listed as 15. The IC50 in assay [2] came to 3000 nM.
The matching figures for `CS(=O)(=O)Cc1cc(F)cc(Nc2ncc(F)c(-c3cc(F)c(F)cc3F)n2)c1` [Example 11, 5-Fluoro-N-{3-fluoro-5-[(methylsulfonyl)methyl]phenyl}-4-(2,4,5-trifluorophenyl)pyrimidin-2-amine]: 74 nM, greater than 270 and 2960 nM.
`CC(C)(C)S(=O)(=O)Cc1cccc(Nc2ncc(F)c(-c3ccc(F)cc3F)n2)c1` [Example 3, N-{3-[(tert-Butylsulfonyl)methyl]phenyl}-4-(2,4-difluorophenyl)-5-fluoropyrimidin-2-amine]: the values for the IC50 in assay [1] and in assay [2] were 110 nM and 3000 nM, respectively. In addition, the “Selectivity CDK9/CDK2” value in assay [1] was 10.
As for `O=S(=O)(Cc1cccc(Nc2ncc(F)c(-c3ccc(F)cc3F)n2)c1)C1CC1` [Example 9, N-{3-[(Cyclopropylsulfonyl)methyl]phenyl}-4-(2,4-difluorophenyl)-5-fluoropyrimidin-2-amine], in assay [1], the IC50 stood at 13 nM and the “Selectivity CDK9/CDK2” value is listed as 32. Also, in assay [2], the IC50 was found to be 3000 nM.

The record behind these values is patent US20150259300A1, “4-(ORTHO)-FLUOROPHENYL-5-FLUOROPYRIMIDIN-2-YL AMINES CONTAINING A SULFONE GROUP” (BAYER PHARMA AKTIENGESELLSCHAFT, priority 2012, published 2015).
